The values below are quoted from earlier work in paper PMC8537277 (Pharmaceuticals, 2021).

The target of this data set is HA receptor-binding site (RBS). Details: method as in PMID 29610325. Particulars: ref [20]; cited from earlier work.

Turning to `CC(=O)N[C@H]1[C@H]([C@H](O)[C@H](O)CO)OC(O)(C(=O)O)C[C@@H]1O` (stereo partly shown) [sialic acid], the KD entry is “mM range”.
